Test results from patent US5998624A, “Haloisoquinoline carboxamide” (Emory University, priority 1998, dated 1999).
pKi: −log10 of the molar value. Values joined by “and” are separate entries in the source; they are usually repeats but may differ in a detail not shown here. Equal values may be shown once.

Biological target: T1, PK receptors (Rattus norvegicus, UniProt P16257)
T1 construct: Tissue preparations of rat kidney homogenate; from tissue; host or cells: rat kidney homogenate
Test: Inhibition of [^3 H]PK11195 binding to PK receptors in rat kidney homogenate
Conditions: [^3 H]PK11195, 60 min, room temperature, Average, N-2
Experimental: The binding affinities of representative compounds of the invention are given in Table I. In this study, the compounds having the generic structure defined, supra, were tested for their ability to inhibit the binding of a known PK receptor antagonist [^3 H]PK11195, to PK receptors in a rat kidney homogenate preparation.
Tissue preparations of rat kidney homogenate were incubated with [^3 H]PK11195 and competitors (i.e. 9a-d & 23a-c, at 12 concentrations ranging from 10^-11 to 10^-6 […]) in an assay buffer. The assay mixture was incubated for 60 min. at room temperature with stirring and the resulting samples were rapidly filtered through Whatman GF/B glass-fiber filters pretreated with 0.2% protamine base and washed with cold buffer, pH 7.4. The filters were counted in a liquid scintillation counter at an efficiency of 65% for tritium saturation binding, Scatchard and competition experiments were analyzed with the iterative nonlinear least squares curve-fitting program. For comparison, for PK11195, X is Cl, Y and Z are H, and R is 2-butyl. Compounds having the lower Ki values were the most As effective inhibitors, and therefore bound the PK-receptor at the lowest concentrations. Compounds of the invention are also useful for radiation therapy, based on their specific affinity for glial tumor cells.

Row | SMILES | pKi
1 | CN(CCCF)C(=O)c1cc2ccccc2c(-c2ccc(I)cc2)n1 [H H I CH2 CH2 CH2 F, 1-(4-iodophenyl)-N-methyl-N-(3-fluoropropyl)-3-isoquinolinecarboxamide] | 7.20
2 | CCC(C)N(C)C(=O)c1cc2ccccc2c(-c2ccc(I)cc2)n1 (stereo not shown) [H H I CH3 CHCH2 CH3] | 8.51 and 8.80
3 | CCC(C)N(C)C(=O)c1cc2ccccc2c(-c2cccc(I)c2)n1 (stereo not shown) [H I H CH3 CHCH2 CH3] | 8.55 and 8.82

The remaining lines, values ahead:

Row | pKi | SMILES
4 | 9.59 | CN(CCCF)C(=O)c1cc2ccccc2c(-c2ccccc2I)n1 [H H CH2 CH2 CH2 F, 1-(2-iodophenyl)-N-methyl-N-(3-fluoropropyl)-3-isoquinolinecarboxamide]
5 | 8.89 | CN(CCCF)C(=O)c1cc2ccccc2c(-c2cccc(I)c2)n1 [H I H CH2 CH2 CH2 F, 1-(3-iodophenyl)-N-methyl-N-(3-fluoropropyl)-3-isoquinolinecarboxamide]
6 | 6.38 | CN(CCF)C(=O)c1cc2ccccc2c(-c2ccccc2I)n1 [I H H CH2 CH2 F, 1-(2-iodophenyl)-N-methyl-N-(2-fluoroethyl)-3-isoquinolinecarboxamide]

System: PK receptor sites
Test: not given
Conditions: background statement; cited from earlier work

Row | SMILES | binding to PK receptor sites
7 | CCC(C)N(C)C(=O)c1cc2ccccc2c(-c2ccccc2Cl)n1 (stereo not shown) [PK11195, 1-(2-chlorophenyl)-N-methyl-N-(alkyl)-3-isoquinoline carboxamide] | binds strongly
